Results as given in patent publication US6358514B1, “Combination of a retinoid with a histidine derivative” (L'Oreal, priority 1998, dated 2002).

Type: physicochemical
Method: The stability of a retinoid is defined in accordance with the present invention by the percentage of the retinoid which remains in its original form after the composition comprising it has been stored for a given period and at a given temperature.
Test of stability of 0.3% all-trans retinol in a water/ethanol mixture stored at 45° C.
The conditions of the study are as follows: test compound at 0.1% (as weight/volume) in water/ethanol (40/60%) all-trans retinol sold by the company Fluka at 0.3% (as weight/volume) in water/ethanol (40/60%) aerobic medium with 55% by volume of air and 45% by volume of ethanol/water storage at 45° C. in amber-coloured bottles.
Degradation of the retinol under these conditions reaches 100% in 7 days of storage at 45° C. The storage conditions to which we subjected the compositions are particularly harsh.
The residual retinol content is monitored by HPLC (on a Spherisorb ODS1 C18 column, by elution with an H2O/CH3CO2H/CH3CO2NH4/acetonitrile mixture: 15/1/0.4/83.6) at 7 days (RT1) and 15 days (RT2) of storage at 45° C. in aerobic medium (55% by volume of air).

SMILES	Degradation of the retinol (7 days, 0.3 % (weight/volume)) [%]	stabilization of retinol compared with the histidine derivatives
CC1=C(/C=C/C(C)=C/C=C/C(C)=C/CO)C(C)(C)CCC1 [retinol, all-trans retinol]	100	
NCCC(=O)N[C@@H](Cc1cnc[nH]1)C(=O)O [carnosine]		stabilizes retinol much less
